For assay [1], the system named is guinea pig isolated heart. As to the kind of experiment: Monophasic action potential duration, isolated heart. The following applies: bolus (100 μl) of 1 mM adenosine. The protocol: Signals were considered adequate if they were stable for at least 5-10 min and the amplitudes exceeded 10 mV. The data were digitized at 2 kHz by a DT-2801A digitizing board (Data Translation, Marlboro, Mass.) and were saved for analysis using the Snapshot data acquisition program (Snapshot Storage Scope, HEM Data Corp., Southfield, Mich.). The duration of the atrial and ventricular monophasic action potentials was measured from onset of depolarization to either 50 or 90% of repolarization.

Assay [2] relates to guinea pig isolated heart. The following applies: previous study (12); cited from earlier work.
The test system of assay [3] is guinea pig isolated heart. As to the kind of experiment: A-V nodal conduction time / S-H interval, isolated perfused heart. The following applies: for S-H interval Efficacy: Table 5, 2759 = CVT-2759; for pEC50: Cavia porcellus. Here is the method: This method evaluates the potencies of compounds to cause coronary vasodilation (A2A AdoR response) and to prolong A-V nodal conduction time (A1 AdoR response).
Rats and guinea pigs, of either sex weighing from 230 to 260 grams and 300 to 350 grams, respectively, were used in this study. Animals were anesthetized by peritoneal injection of a cocktail containing ketamine and xylazine (ketamine 100 mg, xylazine 20 mg/ml). The chest was opened and the heart quickly removed. The heart was briefly rinse in ice-cold Krebs-Henseleit solution (see below), and the aorta cannulated. The heart was then perfused at a flow rate of 10 ml/min with modified Krebs-Henseleit (K-H) solution containing NaCl 117.9, KCl 4.5, CaCl2 2.5, MgSO4 1.18, KH2PO4 1.18, pyruvate 2.0 mmol. The K-H solution (pH 7.4) was gassed continuously with 95% O2 and 5% CO2 and warmed to 35±0.50° C. The heart was electrically paced at a fixed cycle length of […] (250 beats/min) using a bipolar electrode place on the left atrium. The electrical stimuli were generated by a Grass stimulator (Model S48, W. Warwick, R.I.) and delivered through a Stimuli Isolation Unit (Model SIU5, Astro-Med, Inc., NY) as square-wave pulses of 3-msec in duration and amplitude of at least twice the threshold intensity.
A1 adenosine receptor-mediated depression of A-V nodal conduction time (negative dromotropic effect) was measured. Atrial and ventricular surface electrograms in rats and His bundle electrogram in guinea pigs, were recorded during constant atrial pacing.
The effects of compounds on coronary conductance (A2A effect) and atrioventricular conduction time or stimulus-to-His-bundle (S-H) interval (A1 effect) was then determined. Hearts were instrumented for continuous recording of coronary perfusion pressure (A2A response) and atrioventricular (A-V) conduction time or S-H interval (A1 response). In each experiment, concentration-response relationship of compounds to increase coronary conductance and to prolong A-V conduction time or S-H interval was determined. After control measurements of CPP and A-V conduction time or S-H interval were made, progressive higher concentrations of the compound studied was administered until maximal coronary vasodilation and A-V nodal conduction time or S-H interval prolongation were achieved.
Guinea pigs (Hartley) of either sex weighing 300-350 g were anaesthetized with methoxyflurane and killed by decapitation. The chest was cut open and the heart was removed quickly and rinsed in ice-cold modified Krebs-Henseleit (K-H) solution. The contents of the modified K-H solution were (in mM): NaCl 117.9, KCl 4.8, CaCl2 2.5, MgSO2 1.18, KH2PO4 1.2, Na2 EDTA 0.5, ascorbic acid 0.14, dextrose 5.5, pyruvic acid (sodium salt) 2.0, and NaHCO3 25. The K-H solution was continuously gassed with 95% oxygen and 5% CO2, and the pH was adjusted to a value of 7.4. To perfuse the heart by the Langendorff method, the transected aorta was slid onto a glass cannula and secured by a ligature. Retrograde perfusion of the aorta was initiated immediately at a constant flow of 10 ml min-′ with modified K-H solution warmed to 36.0±0.5° C. A side port in the cannula was used to connect the perfusion line to a Gould pressure transducer for measurement of coronary perfusion pressure. Coronary perfusion pressure was continuously recorded on a strip chart (Gould RS3400, Cleveland, Ohio) throughout each experiment. Coronary conductance (in ml min^−1 mmHg^−1) was calculated as the ratio of coronary flow (10 ml min^−1) to perfusion pressure (mm Hg). To facilitate the exit of fluid from the left ventricle, the leaflets of the mitral valve were trimmed with fine spring-handled scissors. When appropriate, hearts were paced at a constant rate using external electrodes. […]

For assay [4], the target named is T1, Adenosine A1 receptor (Cavia porcellus, UniProt P47745).
T1 construct: from tissue; host or cells: guinea pig forebrain membranes
T1 sequence (P47745 1-326): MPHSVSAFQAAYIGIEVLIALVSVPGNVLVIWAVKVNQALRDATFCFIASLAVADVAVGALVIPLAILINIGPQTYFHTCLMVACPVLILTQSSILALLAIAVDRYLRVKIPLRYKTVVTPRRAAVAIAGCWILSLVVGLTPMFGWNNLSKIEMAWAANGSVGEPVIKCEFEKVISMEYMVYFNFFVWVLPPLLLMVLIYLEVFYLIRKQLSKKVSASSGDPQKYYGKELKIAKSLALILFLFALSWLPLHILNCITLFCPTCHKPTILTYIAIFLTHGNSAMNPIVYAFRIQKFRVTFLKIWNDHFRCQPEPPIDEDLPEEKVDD
Put plainly: Affinity binding (Ki) of Tables 4 and 5. The protocol: The binding affinity of a compound is evaluated in a competitive binding assay.

Assay [5] relates to Adenosine A1 receptor. As to the kind of experiment: A1-agonist stimulated [35S]GTPγS binding to G proteins. It counts as biochemical. The following applies: for GTPγS (% of CPA): Table 5; for GTPγS: Table 1, compounds of Example 2, normalized to the full agonist CPA. Here is the method: At the end of the incubation, each suspension was filtered and the retained radioactivity determined as described above.

Where [6] appears, read: Table 4, A-V nodal conduction time, read-out: EC50 A-V NCT.

The text below walks through data of patent US6576620B2, “Method of identifying partial adenosine A1 receptor agonists” (CV Therapeutics, Inc., priority 1999, dated 2003).

The structures appear in SMILES notation. pEC50, pKi: −log10 of the molar value. Read-outs that look alike come from different tables or passages of the source.

`Nc1ncnc2c1ncn2[C@@H]1O[C@H](CO)[C@@H](O)[C@H]1O` [Adenosine]: the “duration of atrial monophasic action potential at 90% of repolarization” value in assay [1] came out at 22 ± 5 ms. For the same compound, the “maximal increase of coronary conductance” value in assay [2] was 0.15±0.02 ml min^−1 mmHg^−1. Moreover, the “adenosine concentration causing second-degree AV block” value in assay [3] (absence of Compound 6 of Example 2) is 6 µM.
Turning to `O[C@@H]1[C@H](O)[C@@H](CSc2cccc(F)c2)O[C@H]1n1cnc2c(N[C@@H]3CCOC3)ncnc21` [Compound 20 of Example 4, 2-{6-[((3R)oxolan-3-yl)amino]purin-9-yl}(4S,5S,2R,3R)-5-[(3-fluorophenylthio)methyl]oxolane-3,4-diol], the pKi at Adenosine A1 receptor [4] (Table 5, read-out: Ki) is 5.81. Also, in assay [3], the “S-H interval Efficacy” value is given as “Partial (= 2759)”. Further, the “GTPγS (% of CPA)” value with Adenosine A1 receptor [5] was 84.2 % of CPA.
For `O=C(NC1CCCC1)OC[C@H]1O[C@@H](n2cnc3c(N[C@@H]4CCOC4)nc(Cl)nc32)[C@H](O)[C@@H]1O` [Compound 69 of Example 2, [(5-{6-[((3R)oxolan-3-yl)amino]-2-chloropurin-9-yl}(3S,2R,4R,5R)-3,4-dihydroxyoxolan-2-yl)methoxy]-N-cyclopentylcarboxamide], the pKi on Adenosine A1 receptor [4] (Table 5, read-out: Ki) is less than 5.84. The “S-H interval Efficacy” value in assay [3] is “Partial (= 2759)”. In the assay with Adenosine A1 receptor [5], the GTPγS is 50% and the “GTPγS (% of CPA)” value is listed as 69 % of CPA.
On to `O[C@@H]1[C@H](O)[C@@H](CSc2c(Cl)cccc2Cl)O[C@H]1n1cnc2c(N[C@@H]3CCOC3)ncnc21` [Compound 19 of Example 4, 2-{6-[((3R)oxolan-3-yl)amino]purin-9-yl}(4S,5S,2R,3R)-5-[(2,6-dichlorophenylthio)methyl]oxolane-3,4-diol], for which, at Adenosine A1 receptor [4] (Table 5, read-out: Ki), the pKi is 5.87. For the same compound, in assay [3], the “S-H interval Efficacy” value is on record as “Full (>2759)”. For the same compound, in the assay on Adenosine A1 receptor [5], the “GTPγS (% of CPA)” value is recorded as 89 % of CPA.
Take `CCCNC(=S)OC[C@H]1O[C@@H](n2cnc3c(N[C@@H]4CCOC4)ncnc32)[C@H](O)[C@@H]1O` [Compound 49 of Example 2, 2-{6-[((3R)oxolan-3-yl)amino]purin-9-yl}(4S,2R,3R,5R)-5-{[(propylamino)thioxomethoxy]methyl}oxolane-3,4-diol]: at Adenosine A1 receptor [4] (Table 4, read-out: Ki low), the pKi is 6.05. In addition, the pKi at Adenosine A1 receptor [4] (Table 5, read-out: Ki) is 6.05. Further, in assay [3] (setting [6]), the pEC50 is 5.85. In addition, in assay [3], the “S-H interval Efficacy” value was “Partial”. Moreover, in the assay on Adenosine A1 receptor [5], the GTPγS is on record as 89% and the “GTPγS (% of CPA)” value was 89 % of CPA.
With `CCNC(=S)OC[C@H]1O[C@@H](n2cnc3c(N[C@@H]4CCOC4)ncnc32)[C@H](O)[C@@H]1O` [Compound 46 of Example 2, 2-{6-[((3R)oxolan-3-yl)amino]purin-9-yl}(4S,2R,3R,5R)-5-{[(ethylamino)thioxomethoxy]methyl}oxolane-3,4-diol], the pKi at Adenosine A1 receptor [4] (Table 5, read-out: Ki) is 5.95. Also, the “S-H interval Efficacy” value in assay [3] is recorded as “Full (Weak)”. In addition, in the assay with Adenosine A1 receptor [5], the GTPγS was 77% and the “GTPγS (% of CPA)” value is reported as 77 % of CPA.
For `CNC(=S)OC[C@H]1O[C@@H](n2cnc3c(N[C@@H]4CCOC4)nc(Cl)nc32)[C@H](O)[C@@H]1O` [Compound 81 of Example 2], the negative-log Ki (pKi) at Adenosine A1 receptor [4] (Table 4, read-out: Ki low) is 6.30; at Adenosine A1 receptor [4] (Table 5, read-out: Ki), 5.96. Moreover, the negative-log EC50 (pEC50) is 6.22 in assay [3] (setting [6]) and 6.28 in assay [3] (Table 5, S-H interval, read-out: EC50). For the same compound, in assay [3], the “S-H interval Efficacy” value is listed as “Partial”. For the same compound, the “GTPγS (% of CPA)” value with Adenosine A1 receptor [5] was 84 % of CPA.
